Values quoted from earlier work in patent US7858602B2, “Therapeutic and prophylactic uses of cell specific carbonic anhydrase enzymes in treating aging disorders due to oxidative stress and as growth factors of stem cells” (priority 2000, dated 2010).

B1: CA III: Carbonic anhydrase III isolated from adult human skeletal muscle (protein, UniProt P07451 2-260, looked up)
Carbonic anhydrase 3: AKEWGYASHNGPDHWHELFPNAKGENQSPVELHTKDIRHDPSLQPWSVSYDGGSAKTILNNGKTCRVVFDDTYDRSMLRGGPLPGPYRLRQFHLHWGSSDDHGSEHTVDGVKYAAELHLVHWNPKYNTFKEALKQRDGIAVIGIFLKIGHENGEFQIFLDALDKIKTKGKEAPFTKFDPSCLFPACRDYWTYQGSFTTPPCEECIVWLLLKEPMTVSSDQMAKLRSLLSSAENEPPVPLVSNWRPPQPINNRVVRASFK

How the values were obtained:
[1] = test system: human synovial cells and synovial tissue cultures
[2] = test system: carbonic anhydrase VI (CA-VI); conditions: orally administered, patients with CA-VI deficiency
CA = conditions: in vitro and in vivo
[3] = test system: sympathetic nerve terminals
[4] = test system: synovial connective tissue fibroblast
muscle fibroblast = conditions: exposure to CA III

Row | Molecule | Prostaglandin PGE2 production [1] | hyaluronic acid production [1] | nitric oxide production [1] | effect on CA (CA) | also measured
1 | CNCCC(Oc1ccc(C(F)(F)F)cc1)c1ccccc1 (stereo not drawn) [Fluoxetine] | inhibit | inhibit | inhibit |  | 
2 | [Zn] [Zinc] |  |  |  |  | stimulation of synthesis/secretion of CA-VI, treatment result [2]: successful
3 | CN(C)CCC=C1c2ccccc2CCc2ccccc21 [aminitriptylline] | inhibit | inhibit | inhibit |  | 
4 | CCCCC[C@H](O)/C=C/[C@H]1[C@H](O)CC(=O)[C@@H]1CCCCCCC(=O)O [prostaglandin E1] |  |  |  | inhibit | 
5 | CCCCC[C@H](O)/C=C/[C@H]1[C@H](O)CC(=O)[C@@H]1C/C=C\CCCC(=O)O [prostaglandin E2, Prostaglandin E2] |  |  |  | inhibit | gastric acid output (gastric acid output): inhibit; egress of norepinephrine from sympathetic nerve terminals [3]: inhibits
6 | B1 |  |  |  |  | increase of synovial connective tissue fibroblast on exposure to CA III ([4]; cell culture): 2 to 12 fold; hyaluronic acid synthesis ([4]; cell culture, exposure to CA III): increased; increase in synovial fibroblasts ([4]; exposure to CA III): 16-70%; increase in muscle fibroblast (muscle fibroblast): 20-45%
